Tested on: preferentially upregulated genes in LV, SP, LN
Assay: Z-score-based differential gene expression analysis (adjuvant group- or adjuvant-associated genes, 40 module mapping, TargetMine annotation)
Assay type: in vivo, C57BL/6 mice
Conditions: LV
Summary of the method: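 Per-sample fold-change values converted to gene-wise z-scores within each organ's data set, then triplicate z-scores summed per adjuvant. Genes with summed score >3 taken as preferentially expressed; gene groups defined by combined per-adjuvant z-score thresholds (z>1 to z>3) specific to each organ.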

## K3: B class CpG ODN (ATCGACTCTCGAGCGTTCTC), TLR9 ligand (chemistry not given here)
ID, sample x1
  Ddx58 1436562_at (Group G1, Modules 20): −0.3
  Ddx58 1456890_at (Group G1, Modules 20): −0.4
  Eif2ak2 1422005_at (Group G1, Modules 20): −0.5
  G3bp2 1421323_a_at (Group G1, Modules 20): −0.4
  Gm9706///Isg15 1431591_s_at (Group G1, Modules 20): −0.5
  H2-T10///H2-T22///H2-T9 1449875_s_at (Group G1, Modules 20): −0.3
  Ifih1 1426276_at (Group G1, Modules 20): −0.4
  Ifit1 1450783_at (Group G1, Modules 20): −0.5
  Ifit3 1449025_at (Group G1, Modules 20): −0.5
  Irf7 1417244_a_at (Group G1, Modules 20): −0.4
  Irgm1 1418825_at (Group G1, Modules 20): −0.5
  Mndal 1426906_at (Group G1, Modules 20): −0.3
  Pml 1448757_at (Group G1, Modules 20): −0.4
  Pml 1456103_at (Group G1, Modules 20): −0.5
  Rnf213 1455500_at (Group G1, Modules 20): −0.5
  Rsad2 1436058_at (Group G1, Modules 20): −0.5
  Shisa5 1423986_a_at (Group G1, Modules 20): −0.5
  Shisa5 1437503_a_at (Group G1, Modules 20): −0.5
  Stat1 1450033_a_at (Group G1, Modules 20): −0.5
  Stat1 1450034_at (Group G1, Modules 20): −0.4
  Tdrd7 1426716_at (Group G1, Modules 20): −0.3
  Tor1aip2 1418115_s_at (Group G1, Modules 20): −0.3
  Tor1aip2 1418116_at (Group G1, Modules 20): −0.4
  Tor1aip2 1435526_at (Group G1, Modules 20): −0.4
  Trim12a 1437432_a_at (Group G1, Modules 20): −0.6
  Uba7 1426970_a_at (Group G1, Modules 20): −0.2
ID, sample x2
  Adar 1425405_a_at (Group G1, Modules 20): −0.7
  Adar 1434268_at (Group G1, Modules 20): −0.5
  Ddx58 1436562_at (Group G1, Modules 20): −0.4
  Ddx58 1456890_at (Group G1, Modules 20): −0.4
  Eif2ak2 1422005_at (Group G1, Modules 20): −0.5
  G3bp2 1421323_a_at (Group G1, Modules 20): −0.5
  Gm9706///Isg15 1431591_s_at (Group G1, Modules 20): −0.5
  H2-T10///H2-T22///H2-T9 1449875_s_at (Group G1, Modules 20): −0.5
  Ifih1 1426276_at (Group G1, Modules 20): −0.4
  Ifit1 1450783_at (Group G1, Modules 20): −0.5
  Ifit3 1449025_at (Group G1, Modules 20): −0.5
  Irf7 1417244_a_at (Group G1, Modules 20): −0.4
  Irgm1 1418825_at (Group G1, Modules 20): −0.6
  Mndal 1426906_at (Group G1, Modules 20): −0.3
  Pml 1448757_at (Group G1, Modules 20): −0.6
  Pml 1456103_at (Group G1, Modules 20): −0.6
  Rnf213 1455500_at (Group G1, Modules 20): −0.5
  Rsad2 1436058_at (Group G1, Modules 20): −0.5
  Shisa5 1423986_a_at (Group G1, Modules 20): −0.5
  Shisa5 1437503_a_at (Group G1, Modules 20): −0.3
  Stat1 1450033_a_at (Group G1, Modules 20): −0.5
  Stat1 1450034_at (Group G1, Modules 20): −0.5
  Tdrd7 1426716_at (Group G1, Modules 20): −0.6
  Tor1aip2 1418115_s_at (Group G1, Modules 20): −0.3
  Tor1aip2 1418116_at (Group G1, Modules 20): −0.5
  Tor1aip2 1435526_at (Group G1, Modules 20): −0.5
  Trim12a 1437432_a_at (Group G1, Modules 20): −0.5
  Uba7 1426970_a_at (Group G1, Modules 20): −0.3
IP, sample x1
  Adar 1425405_a_at (Group G1, Modules 20): −0.5
  Adar 1434268_at (Group G1, Modules 20): −0.6
  Ddx58 1436562_at (Group G1, Modules 20): −0.5

From US20230021483A1, “[…] […] METHOD AND CLASSIFICATION OF PHARMACEUTICAL COMPONENTS BY USING TRANSCRIPTOMES” (National Institutes of Biomedical Innovation, Health and …, priority 2016, published 2023)
